From patent US11839613B2, “Pyrimidine derivatives as PGE2 receptor modulators” (IDORSIA PHARMACEUTICALS LTD, priority 2017, dated 2023) come the findings set out here.

One assay concerns the target EP2 (Homo sapiens (Human), UniProt P43116). The assay is described as follows: hEP2 cAMP assay (SF295 glioblastoma cells, HTRF cAMP). The format is cell-based. To be noted: antagonistic activity. The essentials: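 PGE2-driven cAMP accumulation was measured by HTRF in SF295 cells, which express endogenous EP2 only. Cells in assay buffer with 2 mM IBMX were pre-incubated 45 min at RT, then incubated 30 min at RT. Detection used competition between cellular cAMP and d2-cAMP for a cryptate anti-cAMP antibody.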

In a further assay the target is EP4 (Homo sapiens (Human), UniProt P35408). In words: hEP4 cAMP assay (BT549 breast cancer cells, HTRF cAMP). The format is cell-based. To be noted: antagonistic activity, PGE2 6 nM. Put shortly:
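BT549 breast cancer cells (endogenous EP4) in HBSS/20 mM HEPES/0.2% BSA/2 mM IBMX preincubated 45 min at RT with compound, then stimulated 30 min at RT with 6 nM PGE2 (final). cAMP read by competitive HTRF immunoassay, signal inversely proportional to cAMP.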

In another assay the target is PTGER4 (EP4) (Homo sapiens (Human), UniProt P35408). The assay is described as follows: cell-based.
PTGER4 (EP4), sequence (P35408 whole entry): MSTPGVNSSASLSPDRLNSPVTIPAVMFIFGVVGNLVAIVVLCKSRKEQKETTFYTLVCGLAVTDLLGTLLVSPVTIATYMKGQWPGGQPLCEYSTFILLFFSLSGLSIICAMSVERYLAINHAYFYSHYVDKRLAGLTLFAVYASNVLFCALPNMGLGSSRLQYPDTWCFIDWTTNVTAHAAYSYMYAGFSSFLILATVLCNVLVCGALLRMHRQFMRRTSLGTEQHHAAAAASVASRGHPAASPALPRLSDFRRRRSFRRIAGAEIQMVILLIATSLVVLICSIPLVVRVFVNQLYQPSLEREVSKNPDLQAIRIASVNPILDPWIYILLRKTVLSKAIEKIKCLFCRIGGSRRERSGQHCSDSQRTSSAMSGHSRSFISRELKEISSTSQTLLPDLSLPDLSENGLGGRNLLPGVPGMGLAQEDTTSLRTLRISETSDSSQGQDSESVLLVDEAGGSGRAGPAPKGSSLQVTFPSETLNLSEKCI

EP4, sequence (P35408 whole entry): as above
EP2, sequence (P43116 whole entry): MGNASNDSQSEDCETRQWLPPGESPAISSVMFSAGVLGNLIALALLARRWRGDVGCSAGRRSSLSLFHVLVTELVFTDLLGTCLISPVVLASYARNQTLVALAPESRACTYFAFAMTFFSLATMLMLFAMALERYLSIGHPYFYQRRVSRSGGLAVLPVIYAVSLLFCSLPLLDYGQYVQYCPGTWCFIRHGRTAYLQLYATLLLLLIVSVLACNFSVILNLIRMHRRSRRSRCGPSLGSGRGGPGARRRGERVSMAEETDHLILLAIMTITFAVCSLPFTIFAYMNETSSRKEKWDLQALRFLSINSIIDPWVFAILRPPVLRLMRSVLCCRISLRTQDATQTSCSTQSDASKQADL

As to `CCOc1cc(-c2cc(NCCc3ccc4c(c3)OCCC4)ncn2)sc1C(=O)O` [Ex 58, 5-[6-(2-Chroman-7-yl-ethylamino)-pyrimidin-4-yl]-3-ethoxy-thiophene-2-carboxylic acid], the IC50 against EP2 is 9390 nM; at EP4, 30 nM; on PTGER4 (EP4), 13 nM.

`CSc1cc(-c2cc(NCCc3ccc4c(c3)OCCO4)ncn2)ccc1C(=O)O` [Ex 310]: the half-maximal inhibitory concentration (IC50) against EP2 turned out to be 564 nM; against EP4, 683 nM; against PTGER4 (EP4), 937 nM.

With `CSc1cc(-c2cc(NCCc3ccc4c(c3)CCCO4)ncn2)ccc1C(=O)O` [Ex 257, 4-[6-(2-Chroman-6-yl-ethylamino)-pyrimidin-4-yl]-2-methylsulfanyl-benzoic acid], the 50% inhibitory concentration (IC50) on EP2 amounted to 282 nM; at EP4, 389 nM; against PTGER4 (EP4), 417 nM.

With `CSc1cc(-c2cc(NCCc3ccc4c(c3)CCC4)ncn2)ccc1C(=O)O` [Ex 185, 4-[6-(2-Indan-5-yl-ethylamino)-pyrimidin-4-yl]-2-methylsulfanyl-benzoic acid], the IC50 against EP2 came to 452 nM; on EP4, 200 nM; on PTGER4 (EP4), 258 nM.

Turning to `CCOc1cc(-c2cc(NCCc3ccc4ccccc4c3F)ncn2)ccc1OCC(=O)O` [Ex 136], the half-inhibitory concentration (IC50) at EP2 was found to be 677 nM; against EP4, 120 nM; at PTGER4 (EP4), 29 nM.

For `CCOc1cc(-c2cc(NCCc3ccc4ccccc4c3F)ncn2)sc1C(=O)O` [Ex 11, 3-Ethoxy-5-{6-[2-(1-fluoro-naphthalen-2-yl)-ethylamino]-pyrimidin-4-yl}-thiophene-2-carboxylic acid], the concentration for half-maximal inhibition (IC50) at EP2 was 277 nM; on EP4 it was 7 nM; on PTGER4 (EP4), 13 nM.

Turning to `CCOc1cc(-c2cc(NCCc3ccc4ccn(C)c4c3)ncn2)ccc1OCC(=O)O` [Ex 207], the IC50 is 673 nM at EP2, 248 nM against EP4 and 234 nM against PTGER4 (EP4).

Take `CSc1cc2c(cc1CCNc1cc(-c3ccc(C(=O)O)c(OC4CCC4)c3)ncn1)OCCO2` [Ex 70, 2-Cyclobutoxy-4-{6-[2-(7-methylsulfanyl-2,3-dihydro-benzo[1,4]dioxin-6-yl)-ethylamino]-pyrimidin-4-yl}-benzoic acid]: the IC50 is 441 nM against EP2, 38 nM on EP4 and 209 nM against PTGER4 (EP4).

Turning to `CCOc1cc(-c2cc(NCCc3c(OC)cc4ccccc4c3F)ncn2)sc1C(=O)O` [Ex 3, 3-Ethoxy-5-{6-[2-(1-fluoro-3-methoxy-naphthalen-2-yl)-ethylamino]-pyrimidin-4-yl}-thiophene-2-carboxylic acid], the IC50 is 26 nM at EP2, 2 nM against EP4 and 1 nM on PTGER4 (EP4).

Consider `CCSc1cc(-c2cc(NCCc3c(F)cc4ncccc4c3F)ncn2)ccc1C(=O)O` [Ex 153], for which the half-maximal inhibitory concentration (IC50) against EP2 turned out to be 340 nM; at EP4, 146 nM; on PTGER4 (EP4), 757 nM.

For `CCOc1cc(-c2cc(NCCc3ccc4c(c3)c(C)cn4C)ncn2)sc1C(=O)O` [Ex 133], the half-maximal inhibitory concentration (IC50) came out at 482 nM at EP2, 109 nM against EP4 and 42 nM on PTGER4 (EP4).

Consider `CCOc1cc(-c2cc(NCCc3ccc4ccn(CC)c4c3)ncn2)sc1C(=O)O` [Ex 242], for which the concentration for half-maximal inhibition (IC50) on EP2 stood at 443 nM; on EP4, 351 nM; at PTGER4 (EP4), 495 nM.

On to `CCOc1cc(-c2cc(NCCc3cc4c(cc3OC)CCCC4)ncn2)sc1C(=O)O` [Ex 60, 3-Ethoxy-5-{6-[2-(3-methoxy-5,6,7,8-tetrahydro-naphthalen-2-yl)-ethylamino]-pyrimidin-4-yl}-thiophene-2-carboxylic acid], for which the IC50 at EP2 was determined as 320 nM; against EP4, 31 nM; against PTGER4 (EP4), 3 nM.

As to `CCOc1cc(-c2cc(NCCc3cc4ccccc4cc3OC)ncn2)ccc1C(=O)O` [Ex 162], the IC50 against EP2 turned out to be 371 nM; on EP4 it was 158 nM; on PTGER4 (EP4) it was 134 nM.

As for `CCOc1cc(-c2cc(NCCc3ccc4scc(C)c4c3)ncn2)ccc1CC(=O)O` [Ex 297], the half-inhibitory concentration (IC50) at EP2 is 782 nM; against EP4, 592 nM; on PTGER4 (EP4), 2120 nM.

Consider `O=C(O)c1ccc(-c2cc(NCCc3ccc4ccsc4c3)ncn2)cc1OC1CCC1` [Ex 147], for which the IC50 on EP2 amounted to 571 nM; against EP4 it was 141 nM; against PTGER4 (EP4) it was 219 nM.

On to `CCOc1cc(-c2cc(NCCc3ccc4cc[nH]c4c3)ncn2)ccc1OCC(=O)O` [Ex 194, (2-Ethoxy-4-{6-[2-(1H-indol-6-yl)-ethylamino]-pyrimidin-4-yl}-phenoxy)-acetic acid], for which the IC50 on EP2 amounted to 295 nM; on EP4, 212 nM; against PTGER4 (EP4), 325 nM.

In the case of `CSc1cc(-c2cc(NCCc3ccc4ccccc4c3)ncn2)ccc1C(=O)O` [Ex 219, 2-Methylsulfanyl-4-[6-(2-naphthalen-2-yl-ethylamino)-pyrimidin-4-yl]-benzoic acid], the IC50 at EP2 is 486 nM; on EP4, 129 nM; against PTGER4 (EP4), 202 nM.

Turning to `CCOc1cc(-c2cc(NCCc3ccc4c(c3)OCCC4)ncn2)ccc1CC(=O)O` [Ex 332, {4-[6-(2-Chroman-7-yl-ethylamino)-pyrimidin-4-yl]-2-ethoxy-phenyl}-acetic acid], the half-maximal inhibitory concentration (IC50) at EP2 was found to be 12200 nM; against EP4 it was 1510 nM; at PTGER4 (EP4), 415 nM.

For `CSc1cc(-c2cc(NCCc3ccc4ccsc4c3)ncn2)ccc1C(=O)O` [Ex 176], the results for the IC50 on EP2, at EP4 and against PTGER4 (EP4) were 293 nM, 185 nM and 179 nM, respectively.

Take `CCOc1cc(-c2cc(NCCc3ccc4sccc4c3)ncn2)ccc1C(C)C(=O)O` (stereo not drawn) [Ex 161]: the IC50 was determined as 524 nM on EP2, 130 nM against EP4 and 199 nM on PTGER4 (EP4).

Turning to `Fc1cc2ncccc2c(F)c1CCNc1cc(-c2ccc3ncccc3c2)ncn1` [Ex 123, [2-(5,7-Difluoro-quinolin-6-yl)-ethyl]-(6-quinolin-6-yl-pyrimidin-4-yl)-amine], the results for the IC50 on EP2, at EP4 and on PTGER4 (EP4) were 588 nM, 97 nM and 353 nM, respectively.

For the compound `CCOc1cc(-c2cc(NCCc3cc4c(cc3SC)OCCO4)ncn2)ccc1OCC(=O)O` [Ex 145], the values for the IC50 at EP2, against EP4 and against PTGER4 (EP4) were 519 nM, 134 nM and 90 nM, respectively.

As for `CCOc1cc(-c2cc(NCCc3ccc4ccccc4c3Cl)ncn2)sc1C(=O)O` [Ex 90, 5-{6-[2-(1-Chloro-naphthalen-2-yl)-ethylamino]-pyrimidin-4-yl}-3-ethoxy-thiophene-2-carboxylic acid], the results for the 50% inhibitory concentration (IC50) on EP2, on EP4 and at PTGER4 (EP4) were 378 nM, 55 nM and 26 nM, respectively.

With `CCOc1cc(-c2cc(NCCc3cc4ccoc4cc3F)ncn2)ccc1CC(=O)O` [Ex 195], the IC50 against EP2 was determined as 373 nM; against EP4, 217 nM; against PTGER4 (EP4), 245 nM.

Regarding `CCOc1cc(-c2cc(NCCc3ccc4c(ccn4C)c3)ncn2)sc1C(=O)O` [Ex 65, 3-Ethoxy-5-{6-[2-(1-methyl-1H-indol-5-yl)-ethylamino]-pyrimidin-4-yl}-thiophene-2-carboxylic acid], the figures for the 50% inhibitory concentration (IC50) at EP2, against EP4 and on PTGER4 (EP4) were 304 nM, 35 nM and 33 nM, respectively.

For `CCOc1cc(-c2cc(NCCc3cc4ccccc4cc3Cl)ncn2)sc1C(=O)O` [Ex 62, 5-{6-[2-(3-Chloro-naphthalen-2-yl)-ethylamino]-pyrimidin-4-yl}-3-ethoxy-thiophene-2-carboxylic acid], the half-inhibitory concentration (IC50) against EP2 stood at 301 nM; on EP4, 32 nM; at PTGER4 (EP4), 16 nM.

Take `CCOc1cc(-c2cc(NCCc3ccc4ccccc4c3C)ncn2)sc1/C=C/C(=O)O` [Ex 130]: the results for the half-inhibitory concentration (IC50) against EP2, against EP4 and against PTGER4 (EP4) were 423 nM, 106 nM and 23 nM, respectively.

Turning to `CCOc1cc(-c2cc(NCCc3ccc4ccccc4c3N)ncn2)sc1C(=O)O` [Ex 71, 5-{6-[2-(1-Amino-naphthalen-2-yl)-ethylamino]-pyrimidin-4-yl}-3-ethoxy-thiophene-2-carboxylic acid], the IC50 worked out at 301 nM against EP2, 39 nM at EP4 and 24 nM on PTGER4 (EP4).

In the case of `O=C(O)c1ccc(-c2cc(NCCc3ccc4c(c3)OCC4)ncn2)cc1OC1CCC1` [Ex 295], the 50% inhibitory concentration (IC50) against EP2 is 520 nM; at EP4 it was 568 nM; against PTGER4 (EP4) it was 603 nM.

As for `CCOc1cc(-c2cc(NCCc3ccc4ccccc4c3C)ncn2)ccc1OCC(=O)O` [Ex 166], the IC50 stood at 297 nM on EP2, 165 nM against EP4 and 49 nM against PTGER4 (EP4).

In the case of `CCOc1cc(-c2cc(NCCc3cc4c(cc3OC)OCCCO4)ncn2)sc1C(=O)O` [Ex 21, 3-Ethoxy-5-{6-[2-(8-methoxy-3,4-dihydro-2H-benzo[b][1,4]dioxepin-7-yl)-ethylamino]-pyrimidin-4-yl}-thiophene-2-carboxylic acid], the IC50 came to 912 nM against EP2, 12 nM at EP4 and 58 nM against PTGER4 (EP4).

As to `CCOc1cc(-c2cc(NCCc3cc4c(cc3OC)CCCC4)ncn2)ccc1OCC(=O)O` [Ex 143], the IC50 came out at 787 nM against EP2, 128 nM on EP4 and 22 nM on PTGER4 (EP4).

Consider `CCOc1cc(-c2cc(NCCc3cc4cccnc4cc3F)ncn2)sc1C(=N)NO` [Example 347, 3-Ethoxy-5-{6-[2-(7-fluoro-quinolin-6-yl)-ethylamino]-pyrimidin-4-yl}-N-hydroxy-thiophene-2-carboxamidine], for which the values for the 50% inhibitory concentration (IC50) at EP2, against EP4 and on PTGER4 (EP4) were 495 nM, 172 nM and 31 nM, respectively.
